Results reported in PubChem BioAssay AID292 (DTP/NCI, 2004).
“And” between values parts separate entries of the source, which are not always exact repeats. Equal values may be shown once. Inconclusive results and toxic doses are left out.

System: B6C3F1 mice, ip Sarcoma M5076, median survival T/C
Test: NCI In Vivo Anticancer Drug Screen. Data for tumor model Sarcoma M5076 (intraperitoneal) in B6C3F1 mice
Conditions: endpoint: median survival time, higher = longer survival
Method in brief: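 Transplantable tumour in mice; compound-treated vs vehicle-treated groups. Read-out: survival. Value = treated/control ratio.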

[1] = dose: 100.0 mg/kg/injection, schedule: Q04DX004 (ip), vehicle: saline with Tween-80
[2] = dose: 200.0 mg/kg/injection, schedule: Q04DX004 (ip), vehicle: saline with Tween-80
[3] = dose: 400.0 mg/kg/injection, schedule: Q04DX004 (ip), vehicle: saline with Tween-80
[4] = dose: 25.0 mg/kg/injection, schedule: Q04DX004 (ip), vehicle: saline with Tween-80
[5] = dose: 50.0 mg/kg/injection, schedule: Q04DX004 (ip), vehicle: saline with Tween-80
[6] = dose: 12.5 mg/kg/injection, schedule: Q04DX004 (ip), vehicle: saline
[7] = dose: 25.0 mg/kg/injection, schedule: Q04DX004 (ip), vehicle: saline
[8] = dose: 6.25 mg/kg/injection, schedule: Q04DX004 (ip), vehicle: Klucel (hydroxypropylcellulose) (HPC)
[9] = dose: 12.5 mg/kg/injection, schedule: Q04DX004 (ip), vehicle: Klucel (hydroxypropylcellulose) (HPC)
[10] = dose: 37.5 mg/kg/injection, schedule: Q04DX004 (ip), vehicle: saline with Tween-80
[11] = dose: 75.0 mg/kg/injection, schedule: Q04DX004 (ip), vehicle: saline with Tween-80
[12] = dose: 150.0 mg/kg/injection, schedule: Q04DX004 (ip), vehicle: saline with Tween-80
[13] = dose: 100.0 mg/kg/injection, schedule: Q04DX004 (ip), vehicle: DMSO
[14] = dose: 50.0 mg/kg/injection, schedule: Q04DX004 (ip), vehicle: Klucel (hydroxypropylcellulose) (HPC)
[15] = dose: 100.0 mg/kg/injection, schedule: Q04DX004 (ip), vehicle: Klucel (hydroxypropylcellulose) (HPC)
[16] = dose: 200.0 mg/kg/injection, schedule: Q04DX004 (ip), vehicle: Klucel (hydroxypropylcellulose) (HPC)
[17] = dose: 400.0 mg/kg/injection, schedule: Q04DX004 (ip), vehicle: Klucel (hydroxypropylcellulose) (HPC)

## Nc1nncs1
[1]
  T/C: 111 % of control
dose: 100.0 mg/kg/injection, schedule: Q04DX005 (ip), vehicle: saline with Tween-80
  T/C: 112 % of control
dose: 100.0 mg/kg/injection, schedule: Q04DX005 (ip), vehicle: saline
  T/C: 114 % of control and 116 % of control
[2]
  T/C: 112 % of control
dose: 200.0 mg/kg/injection, schedule: Q04DX005 (ip), vehicle: saline with Tween-80
  T/C: 112 % of control
dose: 200.0 mg/kg/injection, schedule: Q04DX005 (ip), vehicle: saline
  T/C: 109 % of control and 121 % of control
[3]
  T/C: 121 % of control
dose: 400.0 mg/kg/injection, schedule: Q04DX005 (ip), vehicle: saline
  T/C: 95 % of control
dose: 800.0 mg/kg/injection, schedule: Q04DX005 (ip), vehicle: saline
  T/C: 151 % of control

## Cn1c(=O)ccc2c1nc1ccccc1[n+]2[O-]
dose: 12.5 mg/kg/injection, schedule: Q04DX004 (ip), vehicle: saline with Tween-80
  T/C: 98 % of control
[4]
  T/C: 99 % of control
[5]
  T/C: 103 % of control
[1]
  T/C: 99 % of control
[2]
  T/C: 94 % of control

## CN(C)CCNC1=C(Cl)C(=O)c2ccccc2C1=O
dose: 1.5 mg/kg/injection, schedule: Q04DX004 (ip), vehicle: saline
  T/C: 91 % of control
dose: 3.0 mg/kg/injection, schedule: Q04DX004 (ip), vehicle: saline
  T/C: 98 % of control
dose: 6.0 mg/kg/injection, schedule: Q04DX004 (ip), vehicle: saline
  T/C: 89 % of control
dose: 12.0 mg/kg/injection, schedule: Q04DX004 (ip), vehicle: saline
  T/C: 105 % of control
[6]
  T/C: 106 % of control

## CC(=O)Oc1ccccc1O
dose: 6.25 mg/kg/injection, schedule: Q04DX004 (ip), vehicle: saline + Tween-80 + alcohol
  T/C: 112 % of control
dose: 12.5 mg/kg/injection, schedule: Q04DX004 (ip), vehicle: saline + Tween-80 + alcohol
  T/C: 107 % of control
dose: 25.0 mg/kg/injection, schedule: Q04DX004 (ip), vehicle: saline + Tween-80 + alcohol
  T/C: 95 % of control
dose: 50.0 mg/kg/injection, schedule: Q04DX004 (ip), vehicle: saline + Tween-80 + alcohol
  T/C: 98 % of control

## O=C1C[C@@H](c2ccccc2)NCCCCN(O)CCCN1
[7]
  T/C: 102 % of control
dose: 50.0 mg/kg/injection, schedule: Q04DX004 (ip), vehicle: saline
  T/C: 102 % of control
dose: 100.0 mg/kg/injection, schedule: Q04DX004 (ip), vehicle: saline
  T/C: 102 % of control

## Nc1c(/C=C/c2cc3cc(C4=NCCN4)ccc3o2)[nH]c2cc(C3=NCCN3)ccc12
[8]
  T/C: 107 % of control
[9]
  T/C: 106 % of control
dose: 25.0 mg/kg/injection, schedule: Q04DX004 (ip), vehicle: Klucel (hydroxypropylcellulose) (HPC)
  T/C: 104 % of control

## C=CC(=O)OCCOCN(COCCOC(=O)C=C)c1nc(N(COCCOC(=O)C=C)COCCOC(=O)C=C)nc(N(COCCOC(=O)C=C)COCCOC(=O)C=C)n1
dose: 18.75 mg/kg/injection, schedule: Q04DX004 (ip), vehicle: saline with Tween-80
  T/C: 103 % of control
[10]
  T/C: 100 % of control
[11]
  T/C: 110 % of control
[12]
  T/C: 104 % of control

## CCn1c2ccccc2c2c3ncc4cccn4c3ccc21
[10]
  T/C: 96 % of control
[11]
  T/C: 96 % of control
[12]
  T/C: 93 % of control
dose: 300.0 mg/kg/injection, schedule: Q04DX004 (ip), vehicle: saline with Tween-80
  T/C: 92 % of control
dose: 600.0 mg/kg/injection, schedule: Q04DX004 (ip), vehicle: saline with Tween-80
  T/C: 89 % of control

## CCOc1ccc(-c2nc3ccc(-c4nc5ccc(N6CCN(C)CC6)cc5[nH]4)cc3[nH]2)cc1
dose: 3.12 mg/kg/injection, schedule: Q04DX004 (ip), vehicle: saline
  T/C: 100 % of control
dose: 6.25 mg/kg/injection, schedule: Q04DX004 (ip), vehicle: saline
  T/C: 88 % of control
[6]
  T/C: 100 % of control
[7]
  T/C: 92 % of control

## COc1ccc(-n2[nH]c3c(cnc4ccccc43)c2=O)cc1
dose: 2.25 mg/kg/injection, schedule: Q04DX004 (ip), vehicle: saline with Tween-80
  T/C: 93 % of control
dose: 4.5 mg/kg/injection, schedule: Q04DX004 (ip), vehicle: saline with Tween-80
  T/C: 95 % of control
dose: 9.0 mg/kg/injection, schedule: Q04DX004 (ip), vehicle: saline with Tween-80
  T/C: 94 % of control
dose: 18.0 mg/kg/injection, schedule: Q04DX004 (ip), vehicle: saline with Tween-80
  T/C: 89 % of control
dose: 36.0 mg/kg/injection, schedule: Q04DX004 (ip), vehicle: saline with Tween-80
  T/C: 92 % of control

## COC1OC(COC(C)=O)C(OC(C)=O)C(OC(C)=O)[CH]1[Hg][O]C(C)=O (stereo unspecified)
[8]
  T/C: 95 % of control
[9]
  T/C: 96 % of control

## Oc1cc(O)cc(/C=C/c2ccc(O)c(O)c2)c1
dose: 12.5 mg/kg/injection, schedule: Q04DX004 (ip), vehicle: DMSO
  T/C: 97 % of control
dose: 25.0 mg/kg/injection, schedule: Q04DX004 (ip), vehicle: DMSO
  T/C: 99 % of control
dose: 50.0 mg/kg/injection, schedule: Q04DX004 (ip), vehicle: DMSO
  T/C: 89 % of control
[13]
  T/C: 91 % of control

## COc1cccc(C2NC(=S)NC(=O)C2C#N)c1 (stereo unspecified)
[14]
  T/C: 99 % of control
[15]
  T/C: 99 % of control
[16]
  T/C: 95 % of control
[17]
  T/C: 97 % of control

## CC(=O)C1C(=O)C(=O)N(c2ccc(Cl)cc2)C1=O (stereo unspecified)
[14]
  T/C: 111 % of control
[15]
  T/C: 103 % of control
[16]
  T/C: 99 % of control
[17]
  T/C: 93 % of control
dose: 800.0 mg/kg/injection, schedule: Q04DX004 (ip), vehicle: Klucel (hydroxypropylcellulose) (HPC)
  T/C: 92 % of control

## COc1ccc2c(n1)Sc1nc3ccccc3nc1N2
[10]
  T/C: 92 % of control
[11]
  T/C: 98 % of control
[12]
  T/C: 87 % of control

## c1cc2n(n1)CCN2
dose: 50.0 mg/kg/injection, schedule: Q04DX005 (ip), vehicle: saline
  T/C: 86 % of control

## Nc1ccc(S(=O)(=O)Nc2cnc3c(Cl)cccc3n2)cc1
[13]
  T/C: 104 % of control
dose: 200.0 mg/kg/injection, schedule: Q04DX004 (ip), vehicle: DMSO
  T/C: 102 % of control
dose: 400.0 mg/kg/injection, schedule: Q04DX004 (ip), vehicle: DMSO
  T/C: 93 % of control

## O=C(Nc1ccccc1)c1c(O)[nH]c(=O)[nH]c1=O
[4]
  T/C: 102 % of control and 108 % of control
[5]
  T/C: 98 % of control and 106 % of control and 110 % of control
[1]
  T/C: 96 % of control and 111 % of control and 112 % of control
[2]
  T/C: 109 % of control and 111 % of control and 119 % of control
[3]
  T/C: 114 % of control

## CCNC(=O)OCc1cnc(C)c(OC(=O)NCC)c1COC(=O)NCC
[5]
  T/C: 89 % of control
[1]
  T/C: 90 % of control
[2]
  T/C: 87 % of control
[3]
  T/C: 86 % of control
dose: 800.0 mg/kg/injection, schedule: Q04DX004 (ip), vehicle: saline with Tween-80
  T/C: 91 % of control

## C=C(C)C1C2CC3(C)C4(CO4)C4OC4C3(O)C1C(=O)O2 (stereo unspecified)
dose: 0.25 mg/kg/injection, schedule: Q04DX004 (ip), vehicle: Klucel (hydroxypropylcellulose) (HPC)
  T/C: 96 % of control
dose: 0.5 mg/kg/injection, schedule: Q04DX004 (ip), vehicle: Klucel (hydroxypropylcellulose) (HPC)
  T/C: 112 % of control
dose: 1.0 mg/kg/injection, schedule: Q04DX004 (ip), vehicle: Klucel (hydroxypropylcellulose) (HPC)
  T/C: 100 % of control

## C[C@@]1(CO)[C@H](O)CC[C@@]2(C)[C@H]1CC[C@H]1C[C@@H]3C[C@@]12CC[C@@]3(O)COC(=O)CN
dose: 7.2 mg/kg/injection, schedule: Q03HX027 (ip), vehicle: saline + alcohol
  T/C: 116 % of control
dose: 10.0 mg/kg/injection, schedule: Q03HX027 (ip), vehicle: saline + alcohol
  T/C: 121 % of control
dose: 12.0 mg/kg/injection, schedule: Q03HX027 (ip), vehicle: saline + alcohol
  T/C: 116 % of control
dose: 18.8 mg/kg/injection, schedule: Q04DX004 (ip), vehicle: saline + alcohol
  T/C: 109 % of control
dose: 20.0 mg/kg/injection, schedule: Q03HX027 (ip), vehicle: saline + alcohol
  T/C: 157 % of control
dose: 37.5 mg/kg/injection, schedule: Q04DX004 (ip), vehicle: saline + alcohol
  T/C: 104 % of control
dose: 55.6 mg/kg/injection, schedule: Q03HX027 (ip), vehicle: saline + alcohol
  T/C: 156 % of control
dose: 75.0 mg/kg/injection, schedule: Q04DX004 (ip), vehicle: saline + alcohol
  T/C: 102 % of control
dose: 120.0 mg/kg/injection, schedule: Q01DX009 (ip), vehicle: saline + alcohol
  T/C: 110 % of control
